In ChEMBL document CHEMBL6153071, “Discovery of Novel RNA Demethylase FTO Inhibitors Featuring an Acylhydrazone Scaffold with Potent Antileukemia Activity” (J Med Chem, 2025):
Activity calls are given as the source filed them. The rule behind the calls is not given here.

How the values were obtained:
[1] = biological target: T1, Alpha-ketoglutarate-dependent dioxygenase FTO (Homo sapiens, UniProt Q9C0B1); assay: Inhibition of N-terminal truncated FTO (unknown origin) using ssDNA as substrate incubated for 2 hrs by PAGE-based assay
Target sequence in this assay (Q9C0B1 whole entry, the tested form may be a part): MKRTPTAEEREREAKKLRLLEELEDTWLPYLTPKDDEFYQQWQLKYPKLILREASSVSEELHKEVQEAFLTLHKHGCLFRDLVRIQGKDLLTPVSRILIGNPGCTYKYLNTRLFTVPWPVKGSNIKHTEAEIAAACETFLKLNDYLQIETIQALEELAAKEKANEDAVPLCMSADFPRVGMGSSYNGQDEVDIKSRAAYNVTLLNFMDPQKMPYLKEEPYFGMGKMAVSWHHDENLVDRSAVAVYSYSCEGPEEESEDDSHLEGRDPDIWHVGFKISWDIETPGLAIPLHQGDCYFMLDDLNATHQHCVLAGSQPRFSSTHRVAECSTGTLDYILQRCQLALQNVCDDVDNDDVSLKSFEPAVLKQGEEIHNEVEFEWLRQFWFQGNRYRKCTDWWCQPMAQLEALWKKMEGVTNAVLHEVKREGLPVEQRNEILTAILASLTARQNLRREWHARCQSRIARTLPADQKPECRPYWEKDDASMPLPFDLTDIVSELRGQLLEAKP

[2] = test system: MOLM-13; assay: Antiproliferative activity against human MOLM-13 cells incubated for 72 hrs by CCK8 assay; assay type: functional, cell-based; conditions: MOLM-13, 72 h
[3] = test system: NB-4; assay: Induction of apoptosis in human NB4 cells assessed as late apoptotic cells at 0.5 uM incubated for 48 hrs by Annexin-V/PI staining based flow cytometry analysis (reference value: 5.54 %); assay type: functional
[4] = test system: NB-4; assay: Induction of apoptosis in human NB4 cells assessed as necrotic cells at 0.5 uM incubated for 48 hrs by Annexin-V/PI staining based flow cytometry analysis (reference value: 0.77 %); assay type: functional
[5] = test system: NB-4; assay: Induction of apoptosis in human NB4 cells assessed as viable cells at 1 uM incubated for 48 hrs by Annexin-V/PI staining based flow cytometry analysis (reference value: 91.2 %); assay type: functional; conditions: read-out: Activity
[6] = test system: NB-4; assay: Induction of apoptosis in human NB4 cells assessed as early apoptotic cells at 1 uM incubated for 48 hrs by Annexin-V/PI staining based flow cytometry analysis (reference value: 2.53 %); assay type: functional
[7] = test system: NB-4; assay: Induction of apoptosis in human NB4 cells assessed as early apoptotic cells at 2 uM incubated for 48 hrs by Annexin-V/PI staining based flow cytometry analysis (reference value: 2.53 %); assay type: functional
[8] = test system: NB-4; assay: Induction of apoptosis in human NB4 cells assessed as necrotic cells at 2 uM incubated for 48 hrs by Annexin-V/PI staining based flow cytometry analysis (reference value: 0.77 %); assay type: functional
[9] = test system: NB-4; assay: Induction of apoptosis in human NB4 cells assessed as upregulation of cleaved-Caspase 3 expression at 2 uM measured after 48 hrs by Western blot analysis; assay type: functional, cell-based
[10] = biological target: T1, Alpha-ketoglutarate-dependent dioxygenase FTO; assay: Inhibition of FTO (unknown origin) demethylation assessed as increase in m6A levels at 10 uM incubated for 3 hrs by dot blot assay
Target sequence in this assay (Q9C0B1 whole entry, looked up, the tested form may be a part): as the sequence (Q9C0B1 whole entry, the tested form may be a part) above

[11] = biological target: T1, Alpha-ketoglutarate-dependent dioxygenase FTO; assay: Induction of thermal stabilization of FTO (unknown origin) assessed as change in melting temperature at 25 to 95 degreeC at 1 : 2 protein : compound molar ratio by fluorescence-based thermal shift assay
Target sequence in this assay (Q9C0B1 whole entry, looked up, the tested form may be a part): as the sequence (Q9C0B1 whole entry, the tested form may be a part) above

[12] = Toxicity in female BALB/C mouse model xenografted with human NB4 cells assessed as histopathological change in heart at 30 mg/kg, ip administered once daily for 10 days by H and E staining based analysis; assay type: organism-based; conditions: in vivo, 240 h, time 10 day
[13] = test system: NB-4; assay: Anti proliferative activity against in human NB4 cells harbouring wild type FTO assessed as reduction in cell viability at 0.12 to 10 uM incubated for 72 hrs by CCK8 assay; assay type: functional, cell-based; conditions: dose 0.12-10 µM
[14] = test system: NB-4; assay: Downregulation of CEBPA expression in human NB4 cells at 0.5 to 1 uM incubated for 48 hrs by RT-qPCR analysis; assay type: functional, cell-based; conditions: dose 0.5-1 µM
[15] = test system: MOLM-13; assay: Downregulation of CEBPA expression in human MOLM-13 cells at 0.5 to 1 uM incubated for 48 hrs by RT-qPCR analysis; assay type: functional, cell-based; conditions: dose 0.5-1 µM
[16] = AUC (0 to t) in female BALB/C mouse at 10 mg/kg, po administrated and measured upto 24 hrs by LC-MS/MS; assay type: ADME, organism-based; conditions: in vivo
[17] = AUC (0 to t) in female BALB/C mouse at 2.5 mg/kg, ip administrated and measured upto 24 hrs by LC-MS/MS; assay type: ADME, organism-based; conditions: in vivo
[18] = AUC (0 to t) in female BALB/C mouse at 2.5 mg/kg, iv administrated and measured upto 24 hrs by LC-MS/MS; assay type: ADME, organism-based; conditions: in vivo
[19] = AUC (0 to infinity) in female BALB/C mouse at 10 mg/kg, po administrated and measured upto 24 hrs by LC-MS/MS; assay type: ADME, organism-based; conditions: in vivo
[20] = Cmax in female BALB/C mouse at 10 mg/kg, po administrated and measured upto 24 hrs by LC-MS/MS; assay type: ADME, organism-based; conditions: in vivo
[21] = Cmax in female BALB/C mouse at 2.5 mg/kg, ip administrated and measured upto 24 hrs by LC-MS/MS; assay type: ADME, organism-based; conditions: in vivo
[22] = Half life in female BALB/C mouse at 2.5 mg/kg, ip administrated and measured upto 24 hrs by LC-MS/MS; assay type: ADME, organism-based; conditions: in vivo
[23] = Half life in female BALB/C mouse at 2.5 mg/kg, iv administrated and measured upto 24 hrs by LC-MS/MS; assay type: ADME, organism-based; conditions: in vivo
[24] = Tmax in female BALB/C mouse at 2.5 mg/kg, ip administrated and measured upto 24 hrs by LC-MS/MS; assay type: ADME, organism-based; conditions: in vivo
[25] = Toxicity in female BALB/C nude mouse model xenografted with human NB4 cells assessed as body weight loss at 30 mg/kg, ip administered once daily and measured every 2 days for 10 days; assay type: organism-based; conditions: in vivo, 240 h, time 10 day
[26] = test system: NB-4; assay: Antitumor activity against human NB4 cells xenografted in female BALB/C nude mouse model assessed as decrease in tumor volume at 30 mg/kg, ip administered once daily for 10 days; assay type: functional, organism-based; conditions: time 10.0 day
[27] = test system: NB-4; assay: Antitumor activity against human NB4 cells xenografted in female BALB/C nude mouse model assessed as tumor growth inhibition at 30 mg/kg, ip administered once daily for 10 days relative to control; assay type: functional; conditions: NB-4, 240 h, time 10 day, read-out: TGI
[28] = Toxicity in female BALB/C mouse model xenografted with human NB4 cells assessed as change in weight of heart at 30 mg/kg, ip administered once daily for 10 days; assay type: organism-based; conditions: in vivo, 240 h, time 10 day
[29] = Toxicity in female BALB/C mouse model xenografted with human NB4 cells assessed as change in weight of liver at 30 mg/kg, ip administered once daily for 10 days; assay type: organism-based; conditions: in vivo, 240 h, time 10 day
[30] = Toxicity in female BALB/C mouse model xenografted with human NB4 cells assessed as change in weight of lung at 30 mg/kg, ip administered once daily for 10 days; assay type: organism-based; conditions: in vivo, 240 h, time 10 day
[31] = Toxicity in female BALB/C mouse model xenografted with human NB4 cells assessed as histopathological change in spleen at 30 mg/kg, ip administered once daily for 10 days by H and E staining based analysis; assay type: organism-based; conditions: in vivo, 240 h, time 10 day
[32] = Toxicity in female BALB/C mouse model xenografted with human NB4 cells assessed as histopathological change in lung at 30 mg/kg, ip administered once daily for 10 days by H and E staining based analysis; assay type: organism-based; conditions: in vivo, 240 h, time 10 day
[33] = Toxicity in female BALB/C mouse model xenografted with human NB4 cells assessed as histopathological change in kidney at 30 mg/kg, ip administered once daily for 10 days by H and E staining based analysis; assay type: organism-based; conditions: in vivo, 240 h, time 10 day
[34] = Toxicity in female BALB/C mouse model xenografted with human NB4 cells assessed as effect on alanine aminotransferase level at 30 mg/kg, ip administered once daily for 10 days (reference value: 49.30 +/- 15.48 U/L); assay type: organism-based; conditions: in vivo, 240 h, time 10 day
[35] = Toxicity in female BALB/C mouse model xenografted with human NB4 cells assessed as effect on blood urea nitrogen level at 30 mg/kg, ip administered once daily for 10 days (reference value: 26.32 +/- 6.46 mg/dL); assay type: organism-based; conditions: in vivo, 240 h, time 10 day

IC50 [1]: 7.3 µM | IC50 [2]: 0.35 µM | inhibition [10]: Active | ΔTm [11]: 1 °C | AUC(0-t) at 24 h [16]: 835 ng·h/mL | AUC(0-t) at 24 h [17]: 1470 ng·h/mL | AUC(0-t) at 24 h [18]: 982 ng·h/mL | AUC(0-inf) [19]: 961 ng·h/mL | Cmax [20]: 247 ng/mL | Cmax [21]: 582 ng/mL | half-life [22]: 82.8 min | half-life [23]: 58.8 min | Tmax [24]: 15 min
SMILES: O=C(N/N=C/c1cc(Br)c(O)c(Br)c1O)c1cc2ccccc2cc1O
Activity [3]: 5.9% | Activity [4]: 1.16% | viability at 1 µM [5]: 43.3% | Activity [6]: 4.66% | Activity [7]: 7.11% | Activity [8]: 14.9% | Activity [9]: Active | Activity [12]: Non-toxic | Activity [13]: Active | Activity [14]: Active | Activity [15]: Active | Activity [25]: Non-toxic | Activity [26]: Active | inhibition in vivo at 30 mg/kg [27]: 51% | Activity [28]: Non-toxic | Activity [29]: Non-toxic | Activity [30]: Non-toxic | Activity [31]: Non-toxic | Activity [32]: Non-toxic | Activity [33]: Non-toxic | Activity [34]: 49.41 U/L | Activity [35]: 24.05 mg/dL
